One test has as its target T1, CFR1R receptor (Homo sapiens, UniProt P34998).
T1 construct: host or cells: CHO-K1 (clone 2)
T1 sequence (P34998 24-415): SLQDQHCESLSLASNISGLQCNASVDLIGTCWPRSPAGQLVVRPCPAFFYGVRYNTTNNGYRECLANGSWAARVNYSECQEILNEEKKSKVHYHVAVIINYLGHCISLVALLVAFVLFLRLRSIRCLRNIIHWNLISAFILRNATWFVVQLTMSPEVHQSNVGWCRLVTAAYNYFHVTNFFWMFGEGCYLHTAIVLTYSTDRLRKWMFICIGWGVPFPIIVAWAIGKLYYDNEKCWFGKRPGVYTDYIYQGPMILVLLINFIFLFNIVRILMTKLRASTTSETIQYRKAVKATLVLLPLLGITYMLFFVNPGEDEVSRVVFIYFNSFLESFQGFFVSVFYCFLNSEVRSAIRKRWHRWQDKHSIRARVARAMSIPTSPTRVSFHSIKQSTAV
Kind of test: Activity at anti-target CFR1R receptor, cAMP assay in CRF1R-overexpression CHO-K1 cells. It counts as cell-based. The following applies: 100% = Sauvagine at 100 nM; for EC50: cAMP. The essentials:
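cAMP readout in CRF1R-overexpressing CHO-K1 cells (clone 2), run as for the TeloHAEC assay at 4000 cells/well final. Cells came from cryopreserved banks. Sauvagine at 100 nM defined 100% activation.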

In a further test the target is T2, human CRF2a receptor (Homo sapiens, UniProt Q13324).
T2 construct: expressed in transfected cells; host or cells: TeloHEAC cells
T2 sequence (Q13324 1-411): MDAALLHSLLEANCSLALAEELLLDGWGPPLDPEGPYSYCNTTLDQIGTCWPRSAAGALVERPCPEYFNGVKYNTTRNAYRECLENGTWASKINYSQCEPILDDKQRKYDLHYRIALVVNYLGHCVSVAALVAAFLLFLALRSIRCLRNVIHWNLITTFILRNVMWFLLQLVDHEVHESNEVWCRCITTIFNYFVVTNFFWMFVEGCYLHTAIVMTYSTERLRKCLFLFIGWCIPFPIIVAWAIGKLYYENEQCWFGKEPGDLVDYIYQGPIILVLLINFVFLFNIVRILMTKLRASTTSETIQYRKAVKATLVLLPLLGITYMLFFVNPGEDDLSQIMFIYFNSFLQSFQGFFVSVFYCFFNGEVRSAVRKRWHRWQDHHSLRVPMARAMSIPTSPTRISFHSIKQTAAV
Kind of test: Activity at human CRF2a receptor, cAMP functional assay in TeloHEAC cells. The following applies: TeloHEAC cells stably expressing human CRF2a receptor, relative to urocortin 2 (100 nM = 100%). It counts as cell-based. The method, boiled down: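 cAMP accumulation was measured by HTRF 665/620 nm ratio after 30 min at 37° C compound exposure (16 twofold dilutions) of CRF2a-expressing TeloHEAC cells, 10000/well, in HEPES-buffered HBSS plus IBMX. Activity was normalised to urocortin 2 at 100 nM (100%), and EC50 was the concentration giving half-maximal activation.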

*1 amine or outer side, *2 acyl side, *3 side chain or, on linkers, in order; H or OH if unused. Where a SMILES comes first, the peptide text is derived from it. Side-chain parts run from the residue outwards. [ ]: non-standard residue; d: D form. The star is where a group is joined. C16 diacid = O=C(O)CCCCCCCCCCCCCCC(=O)*; γGlu = O=C(O)[C@H](CCC(=O)[*:2])N[*:1]; C14 diacid = O=C(O)CCCCCCCCCCCCC(=O)*; NMeI = CC[C@H](C)[C@H](NC)C(=O)O; Api = NC1(C(=O)O)CCNCC1; Pentanoyl = CCCCC(=O)*; AEEA = NCCOCCOCC(=O)O; Aib = CC(C)(N)C(=O)O

Consider `CCCCC(=O)N[C@H](C(=O)N[C@@H](CC(C)C)C(=O)N[C@@H](CO)C(=O)N[C@@H](CC(C)C)C(=O)N[C@@H](CC(=O)O)C(=O)N[C@@H](C(=O)N1CCC[C@H]1C(=O)N[C@H](C(=O)N[C@@H](CCCCN)C(=O)N[C@@H](CC(C)C)C(=O)N[C@@H](CCCCNC(=O)COCCOCCNC(=O)COCCOCCNC(=O)CC[C@H](NC(=O)CCCCCCCCCCCCC(=O)O)C(=O)O)C(=O)N[C@@H](CCCCN)C(=O)N[C@H](C(=O)N[C@@H](CC(C)C)C(=O)N[C@@H](CC(C)C)C(=O)N[C@@H](CCC(=O)O)C(=O)N[C@@H](CCC(N)=O)C(=O)N[C@@H](CCC(=O)O)C(=O)N[C@@H](CCCCN)C(=O)N[C@@H](CCC(N)=O)C(=O)N[C@@H](CCCCN)C(=O)N[C@@H](CCCCN)C(=O)N[C@@H](CCC(N)=O)C(=O)N[C@@H](CCCNC(=N)N)C(=O)N[C@@H](CCC(=O)O)C(=O)N[C@@H](CCC(N)=O)C(=O)N[C@@H](C)C(=O)N[C@@H](CCC(=O)O)C(=O)N[C@H](C(=O)N[C@@H](CC(N)=O)C(=O)NC(C)(C)C(=O)N[C@@H](CCC(N)=O)C(=O)N[C@H](C(=O)N[C@@H](CC(C)C)C(=O)N[C@@H](C)C(=O)N[C@@H](CCC(N)=O)C(=O)N[C@H](C(N)=O)C(C)C)[C@@H](C)CC)[C@@H](C)O)[C@@H](C)CC)[C@@H](C)CC)C(C)C)C(C)C` [compound 180] (Pentanoyl-VLSLD[dV]PIKLK([AEEA-AEEA-γGlu-C14 diacid])KILLEQEKQKKQREQAETN[Aib]QILAQV-NH2), for which, on CFR1R receptor, the “Emax (% I)” value is 2 % I and the EC50 (as a rule, the concentration giving half of the maximal effect) is more than 250 nM. The compound further gave an EC50 at human CRF2a receptor of 10.7 nM.

On to `CC[C@H](C)[C@H](NC)C(=O)N[C@H](C(=O)N[C@@H](CC(C)C)C(=O)N[C@@H](CO)C(=O)N[C@@H](CC(C)C)C(=O)N[C@@H](CC(=O)O)C(=O)N[C@@H](C(=O)N1CCC[C@H]1C(=O)N[C@H](C(=O)N[C@@H](CCCCN)C(=O)N[C@@H](CC(C)C)C(=O)N[C@@H](CCCCNC(=O)CC[C@H](NC(=O)CCCCCCCCCCCCCCC(=O)O)C(=O)O)C(=O)N[C@@H](CCCCN)C(=O)N[C@H](C(=O)N[C@@H](CC(C)C)C(=O)N[C@@H](CC(C)C)C(=O)N[C@@H](CCC(=O)O)C(=O)N[C@@H](CCC(N)=O)C(=O)N[C@@H](CCC(=O)O)C(=O)N[C@@H](CCCCN)C(=O)N[C@@H](CCC(N)=O)C(=O)N[C@@H](CCCCN)C(=O)N[C@@H](CCCCN)C(=O)N[C@@H](CCC(N)=O)C(=O)N[C@@H](CCCNC(=N)N)C(=O)N[C@@H](CCC(=O)O)C(=O)N[C@@H](CCC(N)=O)C(=O)N[C@@H](C)C(=O)N[C@@H](CCC(=O)O)C(=O)N[C@H](C(=O)N[C@@H](CC(N)=O)C(=O)NC1(C(=O)N[C@@H](CCC(N)=O)C(=O)N[C@H](C(=O)N[C@@H](CC(C)C)C(=O)N[C@@H](C)C(=O)N[C@@H](CCC(N)=O)C(=O)N[C@H](C(N)=O)C(C)C)[C@@H](C)CC)CCNCC1)[C@@H](C)O)[C@@H](C)CC)[C@@H](C)CC)C(C)C)C(C)C` [compound 72] (H-[NMeI]VLSLD[dV]PIKLK([γGlu-C16 diacid])KILLEQEKQKKQREQAETN[Api]QILAQV-NH2), for which, on CFR1R receptor, the “Emax (% I)” value is given as 18 % I and the EC50 was more than 250 nM. In addition, the midpoint of the response at human CRF2a receptor, the EC50, lay at 0.14 nM.

(Values after patent US20260001928A1 (CORTERIA PHARMACEUTICALS, priority 2022, published 2026).)
